Active and inactive are the calls of the source. No cut-off for these calls is given here.
Experiments:
Rattus norvegicus [1] = organism: Rattus norvegicus; experiment: Inhibition of rat liver Alpha-glucosidase II upto 500 uM using Glc2Man7GlcNAc2 substrate after 2 hrs by NP-HPLC analysis
Rattus norvegicus [2] = organism: Rattus norvegicus; experiment: Inhibition of rat liver Alpha-glucosidase II upto 500 uM using Glc1Man5GlcNAc1 substrate after 90 mins by NP-HPLC analysis
HL-60 [3] = experiment: Inhibition of Alpha-glucosidase II in human HL60 cells using 2-Anthranilic acid labelled NB-DNJ substrate after 24 hrs by HPLC analysis relative to control; assay type: cell-based
[4] = Inhibition of rat liver Alpha-glucosidase II
Rattus norvegicus [5] = organism: Rattus norvegicus; experiment: (§1) Inhibition of rat liver Alpha-glucosidase I using Glc3Man9GlcNAc2 substrate
Rattus norvegicus [6] = organism: Rattus norvegicus; experiment: (§2) Inhibition of rat liver Alpha-glucosidase II using p-nitrophenyl alpha D-glucopyranoside substrate
[7] = Inhibition of rat liver Alpha-glucosidase II using Glc1Man5GlcNAc1 substrate after 90 mins by NP-HPLC analysis
[8] = Inhibition of rat liver Alpha-glucosidase II using Glc2Man7GlcNAc2 substrate after 2 hrs by NP-HPLC analysis
HL-60 [9] = experiment: Inhibition of Alpha-glucosidase II in human HL60 cells assessed as Glc1Man4GlcNAc1 formation using 2-Anthranilic acid labelled NB-DNJ substrate by HPLC analysis; assay type: cell-based
[10] = as §1
[11] = as §2
HL-60 [12] = experiment: Inhibition of Alpha-glucosidase I in human HL60 cells using Glc3Man9GlcNAc2 substrate after 24 hrs by HPLC analysis; assay type: cell-based

## CO[C@H]1O[C@H](CN[C@@H]2C=C(CO)[C@@H](O)[C@H](O)[C@H]2O)[C@@H](O)[C@H](O)[C@H]1O
Rattus norvegicus [1]
  inhibition: inactive
Rattus norvegicus [2]
  inhibition: inactive
HL-60 [3]
  inhibition: inactive

## CCCCN1C[C@H](O)[C@@H](O)[C@H](O)[C@H]1CO
[4]
  IC50: 4.6 µM

## CO[C@H]1O[C@H](CO)[C@@H](O)[C@H](N[C@H]2[C@H](O)[C@H](O)[C@@H](O)[C@H](O)[C@H]2O)[C@H]1O
Rattus norvegicus [5]
  inhibition: inactive
Rattus norvegicus [6]
  inhibition: inactive

## CO[C@H]1O[C@H](CO)[C@@H](O)[C@H](N[C@H]2C=C(CO)[C@@H](O)[C@H](O)[C@H]2O)[C@H]1O
[7]
  IC50: 143 µM
[8]
  IC50: 72 µM
HL-60 [9]
  inhibition: Active

## CO[C@H]1O[C@H](CO)[C@@H](O)[C@H](O)[C@H]1N[C@H]1C=C(CO)[C@@H](O)[C@H](O)[C@H]1O
Rattus norvegicus [5]
  inhibition: inactive
Rattus norvegicus [6]
  inhibition: inactive

## CO[C@H]1O[C@H](CO)[C@@H](O)[C@H](N[C@H]2C=C(CO)[C@@H](O)[C@H](O)[C@H]2O)[C@@H]1O
[7]
  IC50: 236 µM
Rattus norvegicus [1]
  inhibition: inactive
HL-60 [9]
  inhibition: Active

## CO[C@H]1O[C@H](CN[C@H]2C=C(CO)[C@@H](O)[C@H](O)[C@H]2O)[C@@H](O)[C@H](O)[C@H]1O
Rattus norvegicus [1]
  inhibition: inactive
Rattus norvegicus [2]
  inhibition: inactive
HL-60 [3]
  inhibition: inactive

## N[C@H]1C=C(CO)[C@@H](O)[C@H](O)[C@H]1O [VALIENAMINE]
[10]
  IC50: 780 µM
[11]
  IC50: 1000 µM
HL-60 [12]
  inhibition: inactive
